Reference: patent publication US9796672B2, “Isoindoline compositions and methods for treating neurodegenerative disease” (Cognition Therapeutics, Inc., priority 2014, dated 2017)
pEC50, pKi: −log10 of the molar value. “Also recorded” adds a separate entry of the source.

How the values were obtained:
[1] = test system: Abeta oligomer-induced membrane trafficking deficits in primary hippocampal neurons; experiment: Membrane trafficking/exocytosis (MTT) assay; details: read-out: Membrane Trafficking EC50; compound dosed prior to Abeta oligomer addition
Description: Primary hippocampal neurons from E18 Sprague-Dawley rat embryos were plated at optimized concentrations in 384 well plates in NB media (Invitrogen). Neurons were maintained in cultures for 3 weeks, with twice weekly feeding of NB media with N2 supplement (Invitrogen).
MTT reagent (3-(4,5-dimethylthizaol-2yl)-2,5diphenyl tetrazolium bromide) (Roche Molecular Biochemicals) was reconstituted in phosphate buffered saline to 5 mg/mL. 10 μL of MTT labeling reagent is added to each well and incubated at 37° C. for 1 h, then imaged. Exocytosis was assessed by automated microscopy and image processing to quantify the amount of endocytosed and exocytosed formazan.
Each assay plate was formatted so that compounds are tested with and without Abeta oligomer on each plate. […] Reduced formazan was first visible in intracellular vesicles. […] The dye precipitated in the aqueous environment of the culture and formed needle-shaped crystals on the surface of the neuron.

neuronal cultures = experiment: Functional neuronal phenotype in neuronal cultures; type: cell-based; design: key: Antagonist: antagonists (block Abeta signaling); Agonist: agonists (block Abeta signaling with U-shaped dose-response curve and toxicity at high doses); Inactive: inactive (no effect in neuronal cultures)
Description: Neuronal cultures are treated with various concentrations of sigma compounds for 24 hours and nuclear intensity compared to vehicle is measured.

Sigma-2 receptor = Sigma-2 receptor competitive radioligand binding assay; design: species or system rat; details: read-out: Sigma-2 Receptor Affinity, Ki
Description: Radioligand binding assays for Sigma-1 receptors and Sigma-2 receptors were carried out by a commercial contract research organization. For Sigma-1 binding, various concentrations of test compounds from 100 μM to 1 nM were used to displace 8 nM [^3H](+)pentazocine from endogenous receptors on Jurkat cell membranes (Ganapathy M E et al. 1991, J Pharmacol. Exp. Ther. 289:251-260). 10 μM Haloperidol was used to define non-specific binding. For Sigma-2 receptors various concentrations of test compounds from 100 μM to 1 nM were used to displace 5 nM [^3H] […] (Bowen W D, et al. 1993, Mol. Neuropharmcol 3:117-126). 10 μM Haloperidol was used to define non-specific binding. Reactions were terminated by rapid filtration through Whatman GF/C filters using a Brandel 12R cell harvester followed by two washes with ice-cold buffer. Radioactivity on the dried filter discs was measured using a liquid scintillation analyzer (Tri-Carb 2900TR; PerkinElmer Life and Analytical Sciences). The displacement curves were plotted and the Ki values of the test ligands for the receptor subtypes were determined using GraphPad Prism (GraphPad Software Inc., San Diego, Calif.). The percentage specific binding was determined by dividing the difference between total bound (disintegrations per minute) and nonspecific bound (disintegrations per minute) by the total bound (disintegrations per minute).
The affinity of candidate sigma-2 ligand compounds at sigma-1 and sigma-2 receptors was also determined by displacement of different known labeled sigma-2 or sigma-1 ligands. Filtration assays were conducted according the previously published procedure (Xu, et al., 2005). Test compounds were dissolved in N,N-Dimethylformamide (DMF), dimethyl sulfoxide (DMSO) or ethanol and then diluted in 50 mM Tris-HCl pH 7.4 buffer containing 150 mM NaCl and 100 mM EDTA. Membrane homogenates were made from guinea pig brain for sigma-1 binding assay and rat liver for sigma-2 binding assay. Membrane homogenates were diluted with 50 mM Tris-HCl buffer, pH 8.0 and incubated at 25° C. in a total volume of 150 uL in 96 well plates with the radioligand and test compounds with concentrations ranging from 0.1 nM to 10 uM. After incubation was completed, the reactions were terminated by the addition of 150 uL of ice-cold wash buffer (10 mM Tris HCl, 150 mM NaCl, pH 7.4) using a 96 channel transfer pipette (Fisher Scientific, Pittsburgh, Pa.) and the samples harvested and filtered rapidly through 96 well fiber glass filter plate (Millipore, Billerica, Mass.) that had been presoaked with 100 uL of 50 mM Tris-HCl buffer. Each filter was washed four times with 200 uL of ice-cold wash buffer (10 mM Tris-HCl, 150 mM NaCl, pH 7.4). A Wallac 1450 MicroBeta liquid scintillation counter (Perkin Elmer, Boston, Mass.) was used to quantitate the bound radioactivity.
Nonspecific binding was determined from samples that contained 10 uM of cold haloperidol.
The binding affinity, Ki values was calculated using the method of Cheng and Prusoff.

[2] = Mouse liver microsome (MLM) stability; type: in vitro ADME; details: mouse, microsomes
Description: A first pharmacokinetic study was performed in microsomes of mice mouse liver microsomes, MLM) by a commercial contract research organization. The studies were performed according to Obach, R. S et al. (1997) J. Pharmacol. Exp. Ther., 283: 46-58, which is incorporated herein by reference.

Sigma-1 receptor = Sigma-1 receptor competitive radioligand binding assay; details: read-out: Sigma-1 Receptor Affinity, Ki
Description: Radioligand binding assays for Sigma-1 receptors and Sigma-2 receptors were carried out by a commercial contract research organization. For Sigma-1 binding, various concentrations of test compounds from 100 μM to 1 nM were used to displace 8 nM [^3H](+)pentazocine from endogenous receptors on Jurkat cell membranes (Ganapathy M E et al. 1991, J Pharmacol. Exp. Ther. 289:251-260). 10 μM Haloperidol was used to define non-specific binding. […] 10 μM Haloperidol was used to define non-specific binding. Reactions were terminated by rapid filtration through Whatman GF/C filters using a Brandel 12R cell harvester followed by two washes with ice-cold buffer. Radioactivity on the dried filter discs was measured using a liquid scintillation analyzer (Tri-Carb 2900TR; PerkinElmer Life and Analytical Sciences). The displacement curves were plotted and the Ki values of the test ligands for the receptor subtypes were determined using GraphPad Prism (GraphPad Software Inc., San Diego, Calif.). The percentage specific binding was determined by dividing the difference between total bound (disintegrations per minute) and nonspecific bound (disintegrations per minute) by the total bound (disintegrations per minute).

Compound: CC(C)(C)Oc1cc(CCC(C)(C)n2cc3ccc(S(C)(=O)=O)cc3c2)ccc1O [compound 95]
- pEC50 [1]: 5.77
- neuronal phenotype (neuronal cultures): Antagonist
- pKi (Sigma-2 receptor): 7.00

Compound: CC(C)(C#Cc1ccc2[nH]ncc2c1)N1Cc2cccc(C(=O)N3CCNCC3)c2C1 [compound 114]
- pEC50 [1]: 6.60
- neuronal phenotype (neuronal cultures): Neuroactive

Compound: COc1ccc(CCC(C)(C)N2Cc3cccc(C(=O)N4CCNCC4)c3C2)cc1 [compound 99]
- Mouse liver microsomes, MLM t½ [2]: 93.3 min
- pEC50 [1]: 6.70
- neuronal phenotype (neuronal cultures): Antagonist/; also recorded: Neuroactive
- pKi (Sigma-2 receptor): 5.92

Compound: CC(=O)N1CCN(C(=O)c2cccc3c2CN(C(C)(C)CCc2ccc(O)c(OCC(C)C)c2)C3)CC1 [compound 92]
- Mouse liver microsomes, MLM t½ [2]: 7 min

Compound: COc1cc(CC[C@@H](C)N2Cc3ccc(S(C)(=O)=O)cc3C2)ccc1O [compound 68]
- Mouse liver microsomes, MLM t½ [2]: 152 min
- pKi (Sigma-1 receptor): 7.00
- neuronal phenotype (neuronal cultures): Inactive

Compound: COc1cc(CCC(C)(C)N2Cc3cc4c(cc3C2)OCO4)ccc1OCCO [compound 47]
- Mouse liver microsomes, MLM t½ [2]: 91 min
- pKi (Sigma-1 receptor): 6.00
- neuronal phenotype (neuronal cultures): Inactive

Compound: C[C@H](CCc1ccc(Cl)c(Cl)c1)N1Cc2ccc(F)cc2C1.Cl [compound 12]
- Mouse liver microsomes, MLM t½ [2]: 13 min
- pEC50 [1]: 6.40
- neuronal phenotype (neuronal cultures): Antagonist

Compound: COc1cccc(CCC(C)(C)N2Cc3ccc(S(C)(=O)=O)cc3C2)c1 [compound 103]
- Mouse liver microsomes, MLM t½ [2]: 15.2 min
- pEC50 [1]: 4.00
- neuronal phenotype (neuronal cultures): Inactive
- pKi (Sigma-2 receptor): 8.85

Compound: CC(C)COc1cc(CCC(C)(C)N2Cc3cccc(C(=O)N4CCOCC4)c3C2)ccc1O [compound 90]
- Mouse liver microsomes, MLM t½ [2]: 9 min

Compound: CC(C)COc1cc(CCC(C)(C)N2Cc3cccc(C(=O)N4CCN(C)CC4)c3C2)ccc1O [compound 91]
- Mouse liver microsomes, MLM t½ [2]: 6 min

Compound: C[C@H](CCc1ccc(OC(=O)N(C)C)c(OC(F)(F)F)c1)N1Cc2cccc(F)c2C1 [compound 41]
- Mouse liver microsomes, MLM t½ [2]: 9 min
- pKi (Sigma-1 receptor): 6.28
- pEC50 [1]: < 4.70
- neuronal phenotype (neuronal cultures): Inactive/

Compound: COc1ccc(CCC(C)(C)N2Cc3cccc(C(=O)N4CCNCC4)c3C2)cc1Cl [compound 118]
- pEC50 [1]: 4.00
- neuronal phenotype (neuronal cultures): Inactive

Compound: COc1cccc(CCC(C)(C)N2Cc3cccc(C(=O)N4CCNCC4)c3C2)c1 [compound 98]
- Mouse liver microsomes, MLM t½ [2]: 29.35 min
- pEC50 [1]: 6.46
- neuronal phenotype (neuronal cultures): Antagonist/; also recorded: Neuroactive
- pKi (Sigma-2 receptor): 5.00

Compound: COc1cc(CCC(C)(C)N2Cc3ccc(S(C)(=O)=O)cc3C2)ccc1O [compound 77]
- Mouse liver microsomes, MLM t½ [2]: 142 min
- pEC50 [1]: 7.00
- neuronal phenotype (neuronal cultures): Antagonist

Compound: COc1cc(CCC(C)(C)N2Cc3ccc(S(C)(=O)=O)cc3C2)ccc1Cl [compound 113]
- pEC50 [1]: 5.28
- neuronal phenotype (neuronal cultures): Antagonist

Compound: COc1cc(CCC(C)N2Cc3ccc4ccccc4c3C2)ccc1O.Cl (stereo not shown) [compound 17]
- Mouse liver microsomes, MLM t½ [2]: 10 min
- pEC50 [1]: 6.52
- neuronal phenotype (neuronal cultures): Antagonist

Compound: CC(=O)Oc1ccc(CCC(C)(C)N2Cc3ccc(S(C)(=O)=O)cc3C2)cc1OC(C)(C)C [compound 96]
- Mouse liver microsomes, MLM t½ [2]: <1.75 min
- pEC50 [1]: 4.00
- neuronal phenotype (neuronal cultures): Inactive
- pKi (Sigma-2 receptor): 8.18

Compound: COc1cccc(CCC(C)(C)n2cc3ccc(S(C)(=O)=O)cc3c2)c1 [compound 104]
- pEC50 [1]: 4.00
- neuronal phenotype (neuronal cultures): Inactive
- pKi (Sigma-2 receptor): 6.12

Compound: CC(CCc1ccc(Cl)c(Cl)c1)N1Cc2ccc3ccccc3c2C1 (stereo not shown) [compound 19]
- neuronal phenotype (neuronal cultures): Antagonist

Compound: C[C@H](CCc1ccc(Cl)c(Cl)c1)N1Cc2cccc(Cl)c2C1.Cl [compound 16]
- Mouse liver microsomes, MLM t½ [2]: 12 min
- pEC50 [1]: < 4.70
- neuronal phenotype (neuronal cultures): Inactive

Compound: CN1CCN(C(=O)c2cccc3c2CN(C(C)(C)CCc2ccc(O)c(OC(F)(F)F)c2)C3)CC1 [compound 93]
- Mouse liver microsomes, MLM t½ [2]: 5 min

Compound: COc1cc(CCC(C)(C)N2Cc3cccc(N4CCNCC4)c3C2)ccc1O [compound 107]
- Mouse liver microsomes, MLM t½ [2]: 25.21 min
- pEC50 [1]: 4.00
- neuronal phenotype (neuronal cultures): Inactive
- pKi (Sigma-2 receptor): 5.00

Compound: CC(C)(CCc1ccc(Cl)cc1)N1Cc2cccc(C(=O)N3CCNCC3)c2C1 [compound 105]
- Mouse liver microsomes, MLM t½ [2]: 106.23 min
- pEC50 [1]: 5.59
- neuronal phenotype (neuronal cultures): Neuroactive
- pKi (Sigma-2 receptor): 6.74

Compound: CC(C)(CCc1ccc(O)c(Cl)c1)N1Cc2cccc(F)c2C1 [compound 117]
- pEC50 [1]: 5.92
- neuronal phenotype (neuronal cultures): Antagonist

Compound: COc1ccc(CCC(C)(C)N2Cc3ccc(S(C)(=O)=O)cc3C2)cc1 [compound 102]
- Mouse liver microsomes, MLM t½ [2]: 20.35 min
- pEC50 [1]: 4.00
- neuronal phenotype (neuronal cultures): Inactive
- pKi (Sigma-2 receptor): 8.74

Compound: COc1ccc(CCC(C)(C)N2Cc3ccc(S(C)(=O)=O)cc3C2)cc1OC [compound 101]
- Mouse liver microsomes, MLM t½ [2]: 84.21 min
- pEC50 [1]: 4.00
- neuronal phenotype (neuronal cultures): Inactive
- pKi (Sigma-2 receptor): 7.96

Compound: C[C@H](CCc1ccc(O)c(OC(C)(C)C)c1)N1Cc2cccc(F)c2C1 [60B]
- Mouse liver microsomes, MLM t½ [2]: 8 min
- pEC50 [1]: 5.80
- neuronal phenotype (neuronal cultures): Antagonist

Compound: COc1ccc2c(c1)CN([C@H](C)CCc1ccc(Cl)c(Cl)c1)C2.Cl [compound 15]
- Mouse liver microsomes, MLM t½ [2]: 15 min
- pEC50 [1]: 6.30
- neuronal phenotype (neuronal cultures): Inactive

Compound: CC(C)(CCc1ccc(F)cc1)N1Cc2cccc(F)c2C1 [compound 33]
- Mouse liver microsomes, MLM t½ [2]: 9 min
- pEC50 [1]: 5.48
- neuronal phenotype (neuronal cultures): Antagonist

Compound: COc1cc2c(cc1OC)CN(C(C)(C)CCc1ccc(F)cc1)C2 [compound 34]
- Mouse liver microsomes, MLM t½ [2]: 46 min
- pKi (Sigma-1 receptor): 8.12
- pEC50 [1]: 4.89
- neuronal phenotype (neuronal cultures): Antagonist

Compound: CC(C)(CCc1ccc2[nH]ncc2c1)N1Cc2cccc(C(=O)N3CCNCC3)c2C1 [compound 115]
- pEC50 [1]: 4.00
- neuronal phenotype (neuronal cultures): Inactive

Compound: COc1cc(CCC(C)(C)N2Cc3ccc(N4CCNCC4)cc3C2)ccc1O [compound 111]
- Mouse liver microsomes, MLM t½ [2]: 27.01 min
- pEC50 [1]: 4.00
- neuronal phenotype (neuronal cultures): Inactive
- pKi (Sigma-2 receptor): 6.13

Compound: CC(C)(CCc1ccc(O)c(OC(F)(F)F)c1)N1Cc2cccc(C(=O)N3CCOCC3)c2C1 [compound 94]
- Mouse liver microsomes, MLM t½ [2]: 14 min

Compound: CC(C)(CCc1ccc(Cl)c(Cl)c1)N1Cc2cccc(N3CCNCC3)c2C1 [compound 109]
- Mouse liver microsomes, MLM t½ [2]: 253.79 min
- pEC50 [1]: 4.00
- neuronal phenotype (neuronal cultures): Agonist
- pKi (Sigma-2 receptor): 7.51

Compound: CC(C)(CCc1ccc(Cl)c(Cl)c1)N1Cc2cccc(C(=O)N3CCNCC3)c2C1 [compound 106]
- Mouse liver microsomes, MLM t½ [2]: 160.43 min
- pEC50 [1]: 5.47
- neuronal phenotype (neuronal cultures): Agonist
- pKi (Sigma-2 receptor): 6.62

Compound: COc1cc(CC[C@@H](C)N2Cc3ccc(C(F)(F)F)cc3C2)ccc1O [compound 2]
- Mouse liver microsomes, MLM t½ [2]: 28 min
- pEC50 [1]: 5.11 to 5.17
- neuronal phenotype (neuronal cultures): Antagonist

Compound: CC(C)(CCc1ccc(O)c(Cl)c1)N1Cc2ccc(S(C)(=O)=O)cc2C1 [compound 116]
- pEC50 [1]: 4.00
- neuronal phenotype (neuronal cultures): Inactive

Compound: COc1cc(CCC(C)(C)N2Cc3cccc(F)c3C2)ccc1Cl [compound 112]
- pEC50 [1]: 6.59
- neuronal phenotype (neuronal cultures): Antagonist

Compound: COc1ccc(CCC(C)(C)N2Cc3cccc(C(=O)N4CCNCC4)c3C2)cc1OC [compound 100]
- Mouse liver microsomes, MLM t½ [2]: 156.24 min
- pEC50 [1]: 5.96
- neuronal phenotype (neuronal cultures): Antagonist
- pKi (Sigma-2 receptor): 5.00

Compound: CC(C)(C#Cc1ccc2[nH]ncc2c1)N1Cc2ccc(S(C)(=O)=O)cc2C1 [compound 110]
- Mouse liver microsomes, MLM t½ [2]: 15.66 min
- pEC50 [1]: 4.00
- neuronal phenotype (neuronal cultures): Inactive
- pKi (Sigma-2 receptor): 5.00

Compound: CC(C)COc1cc(CCC(C)(C)N2Cc3cccc(C(=O)N(C)C)c3C2)ccc1O [compound 89]
- Mouse liver microsomes, MLM t½ [2]: 17 min

Compound: CC(C)(CCc1ccc(Cl)c(Cl)c1)N1Cc2ccc(N3CCNCC3)cc2C1 [compound 108]
- Mouse liver microsomes, MLM t½ [2]: 1236.31 min
- pEC50 [1]: 4.00
- neuronal phenotype (neuronal cultures): Inactive
- pKi (Sigma-2 receptor): 7.82
